# Assay results published in BindingDB's records for doi:10.1016/j.bioorg.2017.01.016 (CSIR-Indian Institute of Chemical Biology, 2017).
# Substitutions are numbered along the chain they refer to. pIC50, pKi: −log10 of the molar value.
# Tests used:
# [1] = target: T1, Seed linoleate 13S-lipoxygenase-1 (Glycine max, UniProt P08170); experiment: In Vitro Soybean Lipoxygenase (SLO) Inhibition Assay; conditions: pH 8
# T1 sequence (P08170 whole entry): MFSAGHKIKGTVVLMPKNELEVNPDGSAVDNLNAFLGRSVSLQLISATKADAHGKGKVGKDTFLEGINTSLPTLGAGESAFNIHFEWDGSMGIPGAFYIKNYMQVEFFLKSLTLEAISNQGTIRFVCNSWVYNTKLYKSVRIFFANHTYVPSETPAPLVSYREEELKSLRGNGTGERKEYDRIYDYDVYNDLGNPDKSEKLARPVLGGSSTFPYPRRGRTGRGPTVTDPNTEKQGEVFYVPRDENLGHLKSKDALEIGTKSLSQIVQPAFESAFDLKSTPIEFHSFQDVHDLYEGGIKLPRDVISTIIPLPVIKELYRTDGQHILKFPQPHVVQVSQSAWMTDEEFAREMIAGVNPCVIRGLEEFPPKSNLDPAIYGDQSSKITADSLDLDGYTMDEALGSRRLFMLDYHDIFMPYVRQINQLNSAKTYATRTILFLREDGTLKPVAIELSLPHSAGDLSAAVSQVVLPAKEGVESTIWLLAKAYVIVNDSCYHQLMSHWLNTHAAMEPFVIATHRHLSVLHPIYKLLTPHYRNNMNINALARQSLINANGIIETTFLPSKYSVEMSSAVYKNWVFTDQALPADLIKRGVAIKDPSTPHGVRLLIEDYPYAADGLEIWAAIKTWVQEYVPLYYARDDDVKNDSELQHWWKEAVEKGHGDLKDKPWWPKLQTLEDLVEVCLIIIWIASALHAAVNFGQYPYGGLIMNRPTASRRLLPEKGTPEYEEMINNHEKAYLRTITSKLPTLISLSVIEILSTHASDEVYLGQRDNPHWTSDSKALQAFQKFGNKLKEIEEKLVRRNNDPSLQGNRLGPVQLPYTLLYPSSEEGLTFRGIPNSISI
# Source text: Following are the compositions of the blank, control and sample.
# [2] = target: T2, Lipoxygenase (Soybean, UniProt B3TDK4); experiment: Molecular Docking
# T2 sequence (B3TDK4 whole entry): T1 sequence (P08170 whole entry) with S160E
# Description: The crystal structure of soybean lipoxygenase-1 (PDB code: 3PZW), was used in our docking experiments. The 3D structure of 3PZW was reported by Chruszcz et al. [Chruszcz et al., Biophys. J., 95(1):1-9] using X-ray diffraction technique with a resolution of […] . The docking of ligands to the catalytic site of soybean lipoxygenase was performed using AutoDock 4.0 software (http://autodock.scripps.edu/).
SMILES,pIC50 [1],pKi [2]
CCOC(=O)c1c(C)oc(-c2ccccc2)c1CC(=O)c1ccccc1 [2-Methyl-4-(2-oxo-2-phenyl-ethyl)-5-phenyl-furan-3-carboxylic acid ethyl ester (3b)],3.54,6.06
COC(=O)c1c(C)oc(-c2ccccc2)c1CC(=O)c1ccccc1 [2-Methyl-4-(2-oxo-2-phenyl-ethyl)-5-phenyl-furan-3-carboxylic acid methyl ester (3a)],4.11,6.18
COC(=O)c1c(C)oc(-c2ccc(C)c(Cl)c2)c1CC(=O)c1ccc(C)c(Cl)c1 [5-(3-Chloro-4-methyl-phenyl)-4-[2-(3-chloro-4-methyl-phenyl)-2-oxo-ethyl)-2-methyl-furan-3-carboxylic acid methyl ester (3i)],4.32,6.45
CCOC(=O)c1c(C)oc(-c2ccc(Cl)cc2)c1CC(=O)c1ccc(Cl)cc1 [5-(4-Chloro-phenyl)-4[2-(4-chloro-phenyl)-2-oxo-ethyl]-2-methyl-furan-3-carboxylic acid ethyl ester (3h)],4.49,6.46
COC(=O)c1c(C)oc(-c2ccc(Cl)cc2)c1CC(=O)c1ccc(Cl)cc1 [5-(4-Chloro-phenyl)-4[2-(4-chloro-phenyl)-2-oxo-ethyl]-2-methyl-furan-3-carboxylic acid methyl ester (3g)],4.49,6.50

# These reach a higher pKi [2]. Values come first.
pIC50 [1],pKi [2],SMILES
4.65,6.61,CCOC(=O)c1c(C)oc(-c2ccc(C)cc2)c1CC(=O)c1ccc(C)cc1 [2-Methyl-4-(2-oxo-2-p-tolyl-ethyl)-5-p-tolyl-furan-3-carboxylic acid ethyl ester (3d)]
–,6.63,"CC(Cc1ccc(O)c(O)c1)C(C)Cc1ccc(O)c(O)c1 (centres undefined) [LOX inhibitor, N/A]"
4.66,6.75,COC(=O)c1c(C)oc(-c2ccc(C)cc2)c1CC(=O)c1ccc(C)cc1 [Methyl 2-methyl-5-(4-methylphenyl)-4-[2-(4-methylphenyl)-2-oxoethyl]furan-3-carboxylate (3c)]
4.67,6.85,CCOC(=O)c1c(C)oc(-c2ccc(Br)cc2)c1CC(=O)c1ccc(Br)cc1 [5-(4-Bromo-phenyl)-4[2-(4-bromo-phenyl)-2-oxo-ethyl]-2-methyl-furan-3-carboxylic acid ethyl ester (3f)]
4.89,7.15,COC(=O)c1c(C)oc(-c2ccc(Br)cc2)c1CC(=O)c1ccc(Br)cc1 [5-(4-Bromo-phenyl)-4[2-(4-bromo-phenyl)-2-oxo-ethyl]-2-methyl-furan-3-carboxylic acid methyl ester (3e)]
